According to ChEMBL document CHEMBL3885861, “Open TG-GATES”:

Species: Rattus norvegicus
Assay: Open TG-GATES - Regimen: Daily Repeat
Type: toxicity, organism-based, Sprague-Dawley
Parameters: regimen Daily Repeat, gender Male, age 6 weeks
Conditions: in vivo, sc, 0.02 mg/kg, […], route subcutaneous injection, dose 20 ug/Kg, dose level Middle; for KIDNEY_L / KIDNEY_R / KIDNEY_TOTAL: tissue Kidney; for LIVER: tissue Liver; for A/G / ALP / ALT / AST / BUN / CRE / Ca / Cl / DBIL / GLC / IP / K / LDH / Na / PL / RALB / TBIL / TC / TG / TP / gamma-GTP: tissue Plasma

## CC(=O)O.N=C(N)NCCC[C@@H](NC(=O)[C@@H]1CCCN1C(=O)[C@@H]1CSSCCC(=O)N[C@@H](Cc2ccc(O)cc2)C(=O)N[C@@H](Cc2ccccc2)C(=O)N[C@@H](CCC(N)=O)C(=O)N[C@@H](CC(N)=O)C(=O)N1)C(=O)NCC(N)=O [DESMOPRESSIN ACETATE]
Tissue Blood, time 28 day
  Lym: 75.8%
  MCH: 19.3 pg
  MCHC: 32.5%
  MCV: 59.4 fL
  Mono: 6%
  Neu: 17.4%
  PT: 11.8 s
  Plat: 112 x10_4/uL
  RBC: 780.2 x10_4/ul
  Ret: 3.5%
  WBC: 128.4 x10_2/uL
Time 7 day
  KIDNEY_L: 1.2 g
  KIDNEY_R: 1.2 g
  KIDNEY_TOTAL: 2.5 g
  LIVER: 12.1 g
  A/G: 2
  ALP: 1103 IU/L
  ALT: 29.6 IU/L
  AST: 69.6 IU/L
  BUN: 15.4 mg/dL
  CRE: 0.4 mg/dL
  Ca: 13.4 mg/dL
  Cl: 100.2 meq/L
  DBIL: 0.01 mg/dL
  GLC: 201 mg/dL
  IP: 7.9 mg/dL
  K: 5.1 meq/L
  LDH: 160.2 IU/L
  Na: 130.8 meq/L
  PL: 138 mg/dL
  RALB: 3.6 g/dL
  TBIL: 0.042 mg/dL
  TC: 75.8 mg/dL
  TG: 95 mg/dL
  TP: 5.5 g/dL
  gamma-GTP: 1 IU/L
Time 14 day
  KIDNEY_L: 1.3 g
  KIDNEY_R: 1.4 g
  KIDNEY_TOTAL: 2.7 g
  LIVER: 13.4 g
  A/G: 1.8
  ALP: 1136 IU/L
  ALT: 29.4 IU/L
  AST: 68.2 IU/L
  BUN: 17.8 mg/dL
  CRE: 0.4 mg/dL
  Ca: 10.6 mg/dL
  Cl: 105.8 meq/L
  DBIL: 0.014 mg/dL
  GLC: 190.6 mg/dL
  IP: 7.3 mg/dL
  K: 5.3 meq/L
  LDH: 133.8 IU/L
  Na: 138.4 meq/L
  PL: 130.6 mg/dL
  RALB: 3.7 g/dL
  TBIL: 0.032 mg/dL
  TC: 65.2 mg/dL
  TG: 109.4 mg/dL
  TP: 5.7 g/dL
  gamma-GTP: 1 IU/L
Time 28 day
  KIDNEY_L: 1.7 g
  KIDNEY_R: 1.7 g
  KIDNEY_TOTAL: 3.4 g
  LIVER: 16.1 g
  A/G: 1.6
  ALP: 834.8 IU/L
  ALT: 27.4 IU/L
  AST: 65 IU/L
  BUN: 18 mg/dL
  CRE: 0.4 mg/dL
  Ca: 9.1 mg/dL
  Cl: 104.2 meq/L
  DBIL: 0.014 mg/dL
  GLC: 190 mg/dL
  IP: 6.7 mg/dL
  K: 4.9 meq/L
  LDH: 143.8 IU/L
  Na: 137.6 meq/L
  PL: 135.2 mg/dL
  RALB: 3.7 g/dL
  TBIL: 0.048 mg/dL
  TC: 69.4 mg/dL
  TG: 107.8 mg/dL
  TP: 6.1 g/dL
  gamma-GTP: 0.4 IU/L
